Values joined by “and” are separate entries in the source; they are usually repeats but may differ in a detail not shown here. Identical values can stand only once. Like-named read-outs stand apart in the source and are kept apart here.
What was measured:
AeOBP22 [1] = target: T1, AeOBP22 (Aedes aegypti, UniProt Q1HRL7); assay: 1-NPN fluorescent reporter binding; settings: result in words
T1 construct: The mature form of AeOBP22 lacking the N-terminal signal peptide was expressed and purified as previously described; made in house
T1 sequence (Q1HRL7 17-138): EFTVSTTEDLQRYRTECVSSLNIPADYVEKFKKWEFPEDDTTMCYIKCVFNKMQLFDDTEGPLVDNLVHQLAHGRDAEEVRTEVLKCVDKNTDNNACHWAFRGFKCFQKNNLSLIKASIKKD

AeOBP22 [2] = target: T1, AeOBP22; assay: NMR 1H-15N HSQC ligand screening / chemical shift perturbation; assay type: binding; settings: protein 100 μM, sodium phosphate pH 6.5; for binding to AeOBP22 judged by NMR: result in words
Experimental: NMR experiments were performed at 25 °C on a either a Varian 900 MHz DD2, Varian INOVA 600 MHz or Bruker Avance Neo 600 MHz spectrometer. Samples for NMR were dissolved in sodium phosphate (20 mM, pH 6.5) and 90% H2O/10% D2O, with DSS (4,4-dimethyl-4-silapentane-1-sulfonic acid) (80 μM) added as an internal reference,[90]. For ligand screening, protein concentration was 100 μM and ligands were added to a concentration of 200–500 μM. For chemical shift assignments, relaxation rate measurements and structure calculations, protein concentrations were in the 400–700 μM range. All NMR experiments were collected using non uniform sampling methods[91] using the Poisson-gap sampling schemes implemented by Hyberts et al.[92] with a sampling density of 25–50%. Data were processed using the istHMS package v2111[93],[94] in combination with NmrPipe[95] and analyzed using Ccpnmr Analysis v 2.4.2[96].
Chemical shift assignments for the complex with arachidonic acid and the backbone assignments for the apo-protein were previously reported. Backbone ^1H, ^15N, ^13Cα and ^13Cβ assignments for nonadecanoic, linoleic acid (pH 4.5 and pH 6.5), and decanoic acids were made in the same way. All other backbone amide assignments were made by following chemical shift trajectories as a function of ligand concentration or chain length. Normalized chemical shift differences are reported as[97],[98]1 Δδ=(ΔδH^2+0.14∗ΔδN^2)

AeOBP22 [3] = target: T1, AeOBP22; assay: DAF based competition binding assay (recovery of DAF fluorescence by fatty acids); settings: for Kd: pH 8.0 (HEPES 50 mM pH 8.1), 25 °C, ± s.d., n = 3
Experimental: Binding affinities were determined by monitoring the recovery of DAF florescence as a function of fatty acid concentration. Stock solutions of fatty acid were made by dissolving the fatty acid in 100% DMSO, and then making a 1:1000 dilution into HEPES (50 mM pH 8.1). Samples were vortexed prior to each titration point. The protein/DAF solution contained fixed concentrations of DAF (100 nM) and AeOBP22 (1000 nM).
As there is a single binding site for the fatty acid and the effect of fluorescence quenching can be completely reversed by increasing concentrations of fatty acids, we concluded that the fatty acid is directly competitive with binding of the DAF reporter. Therefore, the term for KD in Eq. 2 can be replaced with Eq. 3.3 Kapp=KD(1+I/KI) where I is the concentration of the competitor and KI is the dissociation constant of the competitor. The emission maxima were fit using Eq. 2 substituted into Eq. 1, with the concentration of the protein and DAF fixed at their known concentrations.

AeOBP22 [4] = target: T1, AeOBP22; assay: DAF fluorescence quenching titration with AeOBP22 (direct binding); settings: for Kd: direct titration, fluorescence quenching at 513 nm, n = 7
Experimental: All fluorescence experiments were recorded at 25 °C on a Horiba Fluorolog 3–1–1 spectrofluorometer. DAF spectra were acquired using an excitation wavelength of 490 nm and the emission recorded between 500 and 560 nm at 1 nm intervals with an integration time of 1 s and slit widths of 2 nm. Stock solutions of DAF (Thermo Fisher, Batch D-109) were prepared in methanol with potassium hydroxide (0.2 M) and the concentration measured by UV spectroscopy using an extinction coefficient of 88000 M^−1 cm^−1 at 497 nm provided in the certificate of analysis. A 1:100 dilution was made into HEPES (50 mM, pH 8.1) and the sample vortexed and checked by UV to verify the DAF concentration. A solution of DAF (~80–100 nM) was titrated with increasing AeOBP22 to a final concentration of ~4 μM. The fluorescence intensity (cps) at the emission maxima (513 nm) was plotted against the total concentration of AeOBP22 and the KD for DAF was determined by fitting the raw fluorescence intensity for each replicate to Eq. (1):2 Fi=F0(1−([PT+LT+KD]−[PT+LT+KD]^2−4PTLT)/2LT)−Fmin where Fi is the measured fluorescence, F0 is the initial fluorescence in the absence of any protein, PT is the total protein, LT is the total concentration of DAF, and Fmin is the residual fluorescence after maximal quenching by the protein.

AeOBP22 [5] = target: T1, AeOBP22; assay: DAF based competition binding assay (recovery of DAF fluorescence by fatty acids)
[6] = DAF competition, DAF 100 nM, protein 1000 nM, read-out: KD (nM) for binding of fatty acids to AeOBP22
[7] = KD (nM) for binding of fatty acids to AeOBP22, DAF competition, DAF 100 nM, protein 1000 nM
[8] = DAF competition, DAF 100 nM, protein 1000 nM, pH 8.0, n = 3, read-out: KI (dissociation constant of the competitor)

c1ccc(Nc2cccc3ccccc23)cc1 [1-NPN]
binding of 1-NPN reporter to AeOBP22 (AeOBP22 [1]): bound with low affinity

CCCCCCCC/C=C\CCCCCCCC(=O)OC[C@@H](O)COP(=O)(O)O [C16-LPA, lyso-phosphatidic acid]
binding to AeOBP22 judged by NMR (AeOBP22 [2]): failed to identify

O=C(O)CCCCCCCCCCCCCCCO [C16-OH, 16-hydroxy-hexadecanoic acid]
competition for binding of the fluorescent reporter (DAF) (AeOBP22 [3]; result in words): does not compete

CCCCCCCCCCCCCCCC(=O)O [C16:0, palmitic acid]
Kd (AeOBP22 [3]; [6]): 689 ± 89 nM

CCCCCC/C=C\CCCCCCCC(=O)O [C16:1, palmitoleic acid]
Kd (AeOBP22 [3]; [6]): 175 ± 41 nM

CCCCCCCC/C=C\CCCCCCCC(=O)O [C18:1, Oleic acid]
Kd (AeOBP22 [3]; [6]): 85 nM and 84 nM

CCCCC/C=C\C/C=C\CCCCCCCC(=O)O [C18:2, linoleic acid]
Ki (AeOBP22 [3]): 104 ± 30 nM | Kd (AeOBP22 [3]; [7]): 104 ± 30 nM

CCCCC/C=C\C/C=C\C/C=C\C/C=C\CCCC(=O)O [C20:4, arachidonic acid]
binding to AeOBP22 judged by NMR (AeOBP22 [2]): binding occurs with high affinity | Ki (AeOBP22 [3]): 286 ± 29 nM | Kd (AeOBP22 [3]; [7]): 286 ± 29 nM

CCCCCCCCCCCC(=O)Nc1ccc2c(c1)C(=O)OC21c2ccc(O)cc2Oc2cc(O)ccc21 [DAF, 5-(N-dodecanoyl)-amino-fluorescein]
Kd (AeOBP22 [4]; HEPES pH 8.1, 25 °C, ± s.d., read-out: KD (nM) for binding of DAF to AeOBP22): 1190 ± 261 nM | Kd (AeOBP22 [4]; read-out: KD of DAF for AeOBP22): 1190 nM | quenching of DAF fluorescence upon addition of AeOBP22 (reduction from maximal intensity) (AeOBP22 [4]; emission maximum 513 nm): ~ 75%

O=Cc1ccccc1 [benzaldehyde]
ligand concentration at which large NMR chemical shift changes occur (AeOBP22 [2]): > 1 mM | binding to AeOBP22 judged by NMR (AeOBP22 [2]): binding is weak

CC(C)=CCCC(C)CCO (centres unmarked) [citronellol]
ligand concentration at which large NMR chemical shift changes occur (AeOBP22 [2]): > 1 mM | binding to AeOBP22 judged by NMR (AeOBP22 [2]): binding is weak

CC(C)=CCC/C(C)=C/CO [geraniol]
ligand concentration at which large NMR chemical shift changes occur (AeOBP22 [2]): > 1 mM | binding to AeOBP22 judged by NMR (AeOBP22 [2]): binding is weak

CC/C=C\C/C=C\C/C=C\CCCCCCCC(=O)O [αC18:3, a-Linoleic acid C18:3 (D9,12,15)]
Ki (AeOBP22 [5]; pH 5, n = 2, read-out: KI (dissociation constant of the competitor) at pH 5): 42 ± 14 nM | Kd (AeOBP22 [5]; pH 5.0, ± s.d., n = 2, read-out: KD (nM) for binding of fatty acid to AeOBP22 at pH 5.0): 42 ± 14 nM | Kd (AeOBP22 [5]; pH 6.5 as printed, read-out: binding affinity at pH 6.5 (as printed in text)): 52 ± 8 nM | Kd (AeOBP22 [3]; [6]): 52 ± 8 nM | Ki (AeOBP22 [3]; [8]): 52 ± 8 nM

CCCCC/C=C\C/C=C\C/C=C\CCCCC(=O)O [γC18:3, g-Linoleic acid C18:3 (D6 ,9,12)]
Kd (AeOBP22 [3]; [6]): 111 ± 27 nM | Ki (AeOBP22 [3]; [8]): 111 ± 27 nM

Eicosenoic acid [C20:1]
Kd (AeOBP22 [3]; [6]): 102 ± 16 nM | Ki (AeOBP22 [3]; [8]): 102 ± 16 nM

— publication PMC7039890, “Aedes aegypti Odorant Binding Protein 22 selectively binds fatty acids through a conformational change in its C-terminal tail” (Scientific Reports, 2020)
